US20170112861A1, “DRUG DELIVERY ENHANCER COMPRISING SUBSTANCE FOR ACTIVATING LYSOPHOSPHOLIPID RECEPTORS” (Osaka University, priority 2014, published 2017)

What was measured:
[1] = tested on: VE-cadherin in tumor blood vessels of LLC cell tumors; experiment: VE-cadherin expression in vascular endothelial cells of tumors after LPA administration; assay type: in vivo, mice; settings: LPA 3 mg/kg i.p., 24 hours after administration
Description: LLC cells were subcutaneously inoculated into C57BL/6 NCrSlc mice aged 8 weeks (females, SLC, Inc.) in the same manner as in Example 1. An LPA administration solution was prepared in the same manner as in Example 1. Mice on day 9 post-inoculation of LLC cells (individuals with a tumor volume of 60 to 80 mm^3) were subjected to the experiment. The mice were divided into two groups: control group and LPA group (n=3). LPA was intraperitoneally administered to the mice of the LPA group at a dose of 3 mg/kg in 100 μL PBS. The tumors of the control group were harvested just after grouping, and the tumors of the LPA group were harvested at 24 hours after LPA administration. The tumor tissue specimens were immunostained in the same manner as in Example 1 except that the primary antibody and the secondary antibody were changed. The primary antibody was Purified […] Anti-mouse VE-cadherin (BD pharmingen), and the anti-mouse VE-cadherin antibody was diluted to 200-fold in blocking solution. The secondary antibody was Alexa Fluor 488 Goat Anti-rat IgG (Life technologies), and the antibody was diluted to 400-fold in blocking solution. The prepared specimens were observed and photographed under a confocal laser microscope (Leica). Z-stack images were acquired using a confocal laser microscope and analyzed for the expression level (fluorescence intensity) of VE-cadherin.

LLC cells = experiment: Combined administration of LPA and 5-FU, tumor growth in LLC cell tumor-bearing mice; assay type: in vivo
Description: (§1) LLC cells were subcutaneously inoculated into C57BL/6 NCrSlc mice aged 8 weeks in the same manner as in Example 1. An LPA administration solution was prepared in the same manner as in Example 1. The anticancer drug used was 5-FU (Kyowa Hakko Kirin Co., Ltd.). The 5-FU was prepared as a solution in physiological saline (Otsuka Pharmaceutical Co., Ltd.). On day 7 post-inoculation of LLC cells, mice with a tumor volume of 30 to 50 mm^3 were selected and subjected to the test. The mice were divided into four groups: control group, 5-FU group, LPA group and 5-FU/LPA group (n=3). LPA (3 mg/kg in 100 μL PBS) or 5-FU (100 mg/kg in 100 μL PBS) or PBS (100 μL) was administered intraperitoneally. To 5-FU/LPA group, both LPA and 5-FU were administered intraperitoneally. LPA and PBS were administered once daily for consecutive seven days. 5-FU was administered twice in total, once a week for two weeks (on days 7 and 14 post-inoculation). The tumor size was measured over time after start of administration. The tumor volume was calculated by the formula: volume=length×width×height×0.5. Mice at 2 weeks after start of administration were photographed with a digital camera under anesthesia with pentobarbital. The tumors were harvested and photographed with a digital camera.

[2] = tested on: Mouse colon cancer colon 26 cells; experiment: Combined administration of LPA and 5-FU, tumor growth in colon 26 cell tumor-bearing mice; assay type: in vivo; settings: colon 26 tumors in BALB/c mice; LPA 3 mg/kg i.p. once daily for seven days; 5-FU 100 mg/kg i.p. on days 7 and 14
Description: as §1
Mouse colon cancer colon 26 cells were used. […]

[3] = tested on: Mouse melanoma B16-BL6 cells; experiment: Combined administration of LPA and 5-FU, tumor growth in B16-BL6 cell tumor-bearing mice; assay type: in vivo; settings: B16-BL6 tumors; LPA 3 mg/kg i.p. once daily for seven days; 5-FU 100 mg/kg i.p. on days 7 and 14
Description: as §1
Mouse melanoma B16-BL6 cells were used. […]

[4] = tested on: newly formed blood vessels with increased permeability; experiment: Hindlimb ischemia model, edema (hindlimb circumference); assay type: in vivo, mice; settings: LPA 3 mg/kg i.p. once daily for three days, 24 hours after final administration, vs control
From the text: A hindlimb ischemia model is used as a pathological model of Buerger's disease and chronic arteriosclerosis obliterans. In the production of such a model, a blood vessel in the hindlimb of a mouse is dissected to induce ischemia in the region supplied by the blood vessel. The surgical dissection also causes inflammation. The ischemia and inflammation induce angiogenesis. The newly formed blood vessels have increased permeability, which induces edema in the muscles of the hindlimb. An experiment was performed to determine whether LPA inhibits such increased permeability of newly formed blood vessels induced by inflammation or ischemia.
C57BL/6 NCrSlc mice aged 6 weeks (females, SLC, Inc.) were used. An incision was made in the inguinal skin of the right hindlimb under anesthesia with pentobarbital (Kyoritsu Seiyaku Corporation). The femoral vein was ligated at the proximal end, and the saphenous artery and vein were ligated at the distal end. The arteries and veins were excised along with their side branches. The skin incision was closed with a sterilized surgical suture (Natsume Seisakusho). The animal was placed in a 37° C. incubator until the animal recovered from anesthesia. […] At 24 hours after the final administration, the hindlimb circumference was measured.

lysophosphatidic acid [LPA]
expression level (fluorescence intensity) of VE-cadherin from Z-stack images [1]: a strong fluorescence intensity on the cell membrane | localization of VE-cadherin in tumor vascular endothelial cells [1]: VE-cadherin localized on the cell-cell junctions | tumor growth (tumor volume) (LLC cells; LLC tumors, LPA 3 mg/kg i.p. once daily for seven days, 5-FU 100 mg/kg i.p. on days 7 and 14): some inhibitory effects on tumor growth as compared with the control | appearance of tumors (blood flow) (LLC cells; LPA alone 3 mg/kg i.p. once daily for seven days): the tumors appeared reddish, indicating an increase in the blood flow | tumor growth (tumor volume) [2]: some inhibitory effects on tumor growth as compared with the control, up to day 17 post-inoculation | tumor growth (tumor volume) [3]: some inhibitory effects on tumor growth as compared with the control | hindlimb circumference (edema) [4]: significantly reduced
